Each structure is given as a SMILES string. Values joined by “and” are separate entries in the source; they are usually repeats but may differ in a detail not shown here. Equal entries are not always repeated.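 Where inhibition never reached the appropriate level, the endpoint shown equals the highest concentration tested. Otherwise, values were interpolated linearly from a five-concentration, 48-hour dose response in 96-well plates. GI50: concentration for 50% inhibition of growth. At the TGI there is no net growth.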

Test systems include MDA-MB-435; PC-3 prostate; HS 578T breast; BT-549 breast; MDA-N.
What all share (assay): inhibition of tumour cell growth, NCI panel, 48 h

On to `C=CC/C(=C\COP(=O)(OCc1ccc([N+](=O)[O-])o1)N(C)CCCCCl)CC/C=C(\C)CCC=C(C)C` (stereo not drawn), for which the values for the GI50 in the test with MDA-MB-435 and in the test on PC-3 prostate were 16.8 µM and 12 µM, respectively. The TGI came out at 44.1 µM in the test with MDA-MB-435 and 24.3 µM in the test on PC-3 prostate.

For `CCOC(=O)c1c(C)nc2c(c1N)CC(=O)N2CCc1ccccc1`, the GI50 in the test on HS 578T breast was 12.4 µM; in the test on MDA-MB-435 it was 0.354 µM; with PC-3 prostate, 0.579 µM. Further, the results for the TGI in the test on HS 578T breast, in the test with MDA-MB-435 and in the test with PC-3 prostate were 62.3 µM, 15.4 µM and 24.2 µM, respectively.

With `Cc1ccc(C(SCC(N)C(=O)O)(c2ccccc2)c2ccccc2)cc1` (stereo not drawn), the values for the GI50 in the test with BT-549 breast, in the test on HS 578T breast and with PC-3 prostate were 0.145 µM, 0.0371 µM and 0.075 µM, respectively. Further, the TGI in the test on BT-549 breast was > 69.7 µM; in the test with HS 578T breast, 0.913 µM; with PC-3 prostate it was > 100 µM.

Take `CC(/C=C/c1ccccc1)=N\NC(N)=S`: the TGI in the test with BT-549 breast was > 100 µM; in the test with MDA-MB-435, 84.4 µM; with MDA-N it was > 100 µM; in the test with PC-3 prostate, > 100 µM.

For `N=C(N)c1ccc(NCCOCCNc2ccc(C(=N)N)cc2)cc1`, the GI50 in the test with BT-549 breast is 34.9 µM; in the test with HS 578T breast it was 52.8 µM; with MDA-MB-435, 81.3 µM; with PC-3 prostate it was 50.7 µM. For the same compound, the TGI in the test on BT-549 breast, in the test with HS 578T breast, in the test on MDA-MB-435 and with PC-3 prostate was > 100 µM in each case.

In the case of `COc1cc(C2C3=C(COC3=O)Nc3c2ccc2c3CCCC2)cc2c1OCO2` (stereo not drawn), the GI50 in the test on BT-549 breast was 0.118 µM; in the test on HS 578T breast, 0.0367 µM; in the test on MDA-MB-435, 0.0199 µM; in the test with PC-3 prostate it was 0.0387 µM. The TGI is 30.5 µM in the test with BT-549 breast, 45.5 µM in the test with HS 578T breast, 0.0497 µM in the test with MDA-MB-435 and > 100 µM in the test on PC-3 prostate.

On to `CCC(=O)Nc1ccccc1C#C/C=C\C#Cc1ccccc1C(F)(F)F`, for which the GI50 with BT-549 breast is 2.21 µM; in the test on HS 578T breast it was 1.35 µM; in the test on MDA-MB-435, 0.851 µM; with PC-3 prostate, 4.08 µM. The TGI with BT-549 breast is 32.5 µM; with HS 578T breast, 9.19 µM; in the test on MDA-MB-435, 1.84 µM; in the test on PC-3 prostate it was > 50 µM.

In the case of `NCCOc1ccccc1/C=C1\c2ccccc2-c2ccc([N+](=O)[O-])cc21`, the GI50 in the test on BT-549 breast is 1.5 µM; in the test on HS 578T breast, 1.72 µM; with MDA-MB-435, 1.68 µM; with PC-3 prostate it was 1.52 µM. Also, the TGI in the test on BT-549 breast was determined as 2.84 µM; in the test with HS 578T breast, 3.79 µM; with MDA-MB-435, 3.09 µM; in the test on PC-3 prostate, 2.96 µM.

For the compound `Cc1ccc(C2=Nc3c(N)ncnc3NC(c3ccc4c(c3)OCO4)C2)cc1` (stereo not drawn), in the test with HS 578T breast, the GI50 was 7.28 µM and the TGI stood at 40 µM. Besides, in the test on MDA-MB-435, the GI50 was 1.15 µM and the TGI amounted to 4.12 µM.

With `CN(C)CC(C(=O)Cc1ccccc1)c1ccccc1` (stereo not drawn), the GI50 with BT-549 breast is 3.18 µM; in the test on HS 578T breast, 3.16 µM; in the test with MDA-MB-435, 3.09 µM; in the test with PC-3 prostate, 7.53 µM. In addition, the TGI in the test with BT-549 breast is 8.74 µM; in the test on HS 578T breast it was 9.83 µM; with MDA-MB-435 it was 12.2 µM; in the test with PC-3 prostate, 22.4 µM.

With `COc1ccc2c(Cl)cc(NC(=O)Nc3c(C)cccc3C)nc2c1`, the GI50 is 36 µM in the test with BT-549 breast, 13.4 µM in the test on MDA-MB-435 and 24.5 µM in the test with PC-3 prostate. The results for the TGI in the test with BT-549 breast, with MDA-MB-435 and in the test with PC-3 prostate were > 100 µM, 40.5 µM and > 100 µM, respectively.

In the case of `Cc1cc(C(=O)O)c(C)n1-c1cccc(C(=O)O)c1`, the GI50 with BT-549 breast, in the test on MDA-MB-435 and in the test on PC-3 prostate was > 100 µM in each case. In addition, the TGI in the test on BT-549 breast, with MDA-MB-435 and in the test on PC-3 prostate was > 100 µM in each case.

Take `Cc1cc(C(=O)NC(CCC(=O)O)C(=O)O)sc1CCC1CNc2nc(N)[nH]c(=O)c2C1` (stereo not drawn): the GI50 in the test on BT-549 breast was 0.37 µM and 2.39 µM; in the test on HS 578T breast, 2.13 µM and 8.89 µM; in the test with MDA-MB-435 it was 0.0354 µM and 0.0542 µM; in the test with PC-3 prostate, < 0.01 µM. In addition, the TGI in the test with BT-549 breast, with HS 578T breast, in the test with MDA-MB-435 and with PC-3 prostate was > 100 µM throughout.

For `C[n+]1c(-c2ccc(/C=N/NC(=O)c3ccc(C(=O)N/N=C/c4ccc(-c5cn6ccccc6[n+]5C)cc4)cc3)cc2)cn2ccccc21`, the GI50 in the test on BT-549 breast was 874 µM; in the test with HS 578T breast, > 1000 µM; with MDA-MB-435 it was > 1000 µM; in the test on PC-3 prostate it was 169 µM. The TGI in the test with BT-549 breast was > 1000 µM; in the test on HS 578T breast, > 1000 µM; in the test with MDA-MB-435 it was > 1000 µM; in the test on PC-3 prostate it was 306 µM.

For the compound `CCCCC(=O)N/N=C/c1c(O)ccc2ccccc12`, the GI50 is 0.537 µM with BT-549 breast, 6.54 µM in the test with HS 578T breast, 4.37 µM in the test with MDA-MB-435 and 0.953 µM in the test on PC-3 prostate. Besides, the TGI with BT-549 breast is 6.6 µM; in the test on HS 578T breast, > 100 µM; in the test with MDA-MB-435, > 100 µM; with PC-3 prostate it was > 57.5 µM.

For the compound `COC1C(OC(=O)/C=C/C=C/C=C/C=C\C(=O)O)CCC2(CO2)C1C1(C)OC1CC=C(C)C` (stereo not drawn), the GI50 in the test with BT-549 breast, in the test on HS 578T breast, in the test on MDA-MB-435 and in the test with PC-3 prostate was > 200 µM throughout. For the same compound, the TGI in the test on BT-549 breast, in the test on HS 578T breast, with MDA-MB-435 and in the test on PC-3 prostate was > 200 µM throughout.

Take `Oc1cccc(/C=N/Nc2nnc(N/N=C/c3cccc(O)c3)c3ccccc23)c1`: the TGI is 44.8 µM with BT-549 breast, 52.9 µM in the test on HS 578T breast, 81 µM in the test on MDA-MB-435 and 44.4 µM in the test on PC-3 prostate.

In the case of `C=C(CC(=O)O)C(=O)O` (tested in a mixture with another compound), the GI50 in the test on BT-549 breast, in the test with HS 578T breast, in the test with MDA-N and in the test on PC-3 prostate was > 50 µg/mL each time. Also, the TGI with BT-549 breast, with HS 578T breast, in the test on MDA-N and with PC-3 prostate was > 50 µg/mL in each case.

As to `Cn1c2ccccc2c2c3[nH][nH]c(=O)c3c3c4ccccc4[nH]c3c21`, the GI50 is 1.59 µM in the test with BT-549 breast, 0.993 µM in the test with HS 578T breast, 2.03 µM in the test on MDA-MB-435 and 2.03 µM in the test with PC-3 prostate. The TGI amounted to 5.3 µM in the test on BT-549 breast, 5.88 µM in the test on HS 578T breast, 11.1 µM in the test on MDA-MB-435 and 11.3 µM in the test with PC-3 prostate.

These data come from PubChem BioAssay (NCI).
